Test results reported in patent US20250276068A1, “PHARMACEUTICAL COMPOSITIONS OF POLYPEPTIDE CONJUGATES AND METHODS OF USES THEREOF” (BEIJING QL BIOPHARMACEUTICAL CO., LTD., priority 2022, published 2025).
*1 amine or outer side, *2 acyl side, *3 side chain or, on linkers, in order; H or OH if unused. Side-chain parts run from the residue outwards. [ ]: non-standard residue; d: D form. The star is where a group is joined. C18 diacid = O=C(O)CCCCCCCCCCCCCCCCC(=O)*; γGlu = O=C(O)[C@H](CCC(=O)[*:2])N[*:1]; AEEA = NCCOCCOCC(=O)O; Aib = CC(C)(N)C(=O)O

Columns and labels:
C57BL/6 mice = experiment: Body weight loss in C57 lean mice after single s.c. dose; assay type: in vivo; settings: 30 nmol/kg s.c. once
Experimental: Method: 10 week old male C57BL/6 mice were injected subcutaneously with protein once on Day1. Body weight was measured daily and five animals were used for each treatment group. Body weight was monitored for each individual animal. % BW loss=100*(BW on Day n−BW on Day 1)/(BW on Day 1). […] The area under the curve for body weight loss (%) from 0 until 8 days (AUG ΔBW 0-8d) was calculated.

human serum albumin [1] = target: human serum albumin (Homo sapiens, UniProt P02768); experiment: Human serum albumin binding by surface plasmon resonance (Biacore 8K); settings: human serum albumin on CM5 chip, SPR
Experimental: Method: Binding of molecules to serum albumin was characterized by surface plasmon resonance in a Biacore 8K instrument. Serum albumin from different species was covalently bound to CM5 sensor chips surface until 4000 RU was reached. The chip was blocked by 1M ethanolamine with flowrate of 10 μL/min for 420 s. Each molecule sample was diluted and injected at a flow rate of 30 μL/min to allow for binding to chip-bound albumin for 120 s and for dissociation for 300 s. Binding buffer without molecule was sent over the chip at the flow rate of 20 seconds to allow spontaneous dissociation of bound molecule for 30 seconds.

db/db mice = experiment: Non-fasting glucose in db/db mice after single s.c. dose; assay type: in vivo
Experimental: Method: 10 weeks old male db/db mice were injected subcutaneously with GLP-1 polypeptide conjugate once. […] Delta blood glucose is glucose subtracted by baseline level. […] The area under the curve for delta blood glucose from 0 until 192 hours (AUCΔBG 0-192h) was calculated.

GLP-1 receptor = GLP-1 receptor (Homo sapiens, UniProt P43220); settings: J. Med. Chem. 2015, 58, 7370-7380; cited from earlier work
Chain of GLP-1 receptor (P43220 24-463, species assumed): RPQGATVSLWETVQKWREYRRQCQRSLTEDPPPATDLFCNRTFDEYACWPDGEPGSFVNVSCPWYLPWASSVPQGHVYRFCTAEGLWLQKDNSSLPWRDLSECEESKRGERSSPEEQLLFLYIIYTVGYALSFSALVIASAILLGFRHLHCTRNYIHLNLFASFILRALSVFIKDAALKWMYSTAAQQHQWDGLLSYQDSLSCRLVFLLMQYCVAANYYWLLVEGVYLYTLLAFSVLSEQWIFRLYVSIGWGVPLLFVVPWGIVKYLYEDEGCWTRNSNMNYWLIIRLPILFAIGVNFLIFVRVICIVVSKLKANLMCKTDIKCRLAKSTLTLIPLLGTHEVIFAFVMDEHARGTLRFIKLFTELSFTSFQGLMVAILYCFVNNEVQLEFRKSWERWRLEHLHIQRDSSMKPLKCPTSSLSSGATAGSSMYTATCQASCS

human serum albumin [2] = target: T1, human serum albumin (human, UniProt P02768 25-609); experiment: SPR (Biacore 8K), albumin on CM5 chip
T1 construct: also called HSA

## semaglutide
C57BL/6 mice; Study 1 (FIG. 1A)
  AUC ΔBW 0-8 d (day*%): −9.3 day*%
C57BL/6 mice; Study 2 (FIG. 1B)
  AUC ΔBW 0-8 d (day*%): −13.2 day*%
Human serum albumin [1]
  Rmax (RU): 55.2 RU
db/db mice; 3 nmol/kg s.c. once
  AUC ΔBG 0-192 h: -317.0 mmol·h/L
db/db mice; 10 nmol/kg s.c. once
  AUC ΔBG 0-192 h: -583.4 mmol·h/L
db/db mice; 30 nmol/kg s.c. once
  AUC ΔBG 0-192 h: -527.1 mmol·h/L
GLP-1 receptor
  loss in GLP-1 receptor binding in presence of human serum albumin (HSA) relative to its unconjugated counterpart: 939 fold

B1: Molecule 002 (peptide)
peptide: H[Aib]EGTFTSDVSSYLEGQAAREFIAWLVRGGGGAQPGAQPGAQPGAQPGAQPGAQPGAQPGAQPGAQPGQK([AEEA-AEEA-γGlu-C18 diacid])P
notes: Mono-acylated GLP-1 polypeptide conjugate; also called 1006
Human serum albumin [2]
  binding result: binds

B2: Molecule 012 (peptide)
peptide: H[Aib]EGTFTSDVSSYLEEQAAK([AEEA-AEEA-γGlu-C18 diacid])EFIAWLVRGGGGAQPGAQPGAQPGAQPGAQPGAQPGAQPGAQPGAQPGQK([AEEA-AEEA-γGlu-C18 diacid])P
notes: Double-acylated GLP-1 polypeptide conjugate
Human serum albumin [2]
  binding result: binds

B3: Molecule 019 (peptide)
peptide: H[Aib]EGTFTSDVSSYLEEQAAREFIAWLVRGGGGAQPGAQPGAQPGAQPGAQPGAQPGAQPGAQPGAQPGQK([AEEA-AEEA-γGlu-C18 diacid])P
notes: Mono-acylated GLP-1 polypeptide conjugate; also called 1023
Human serum albumin [2]
  binding result: binds
